Measurements: patent US9447083B2, “N-acylhydrazone derivatives for selective T cell inhibitor and anti-lymphoid malignancy drug” (CHONG KUN DANG PHARMACEUTICAL CORP., priority 2012, dated 2016)

These molecules were tested on Jurkat T cells (assay: Pro-apoptotic activity on Jurkat T cells (FITC-Annexin V / 7-AAD flow cytometry)). Conditions: Homo sapiens, 72 hours, cells stained with FITC-Annexin V and 7-AAD among total cells, read-out: Cell Apoptosis Effect to Jurkat T Cell (% in 5 μM).
Format: cell-based
Experimental: In order to investigate the effects of the prepared compounds, the apoptosis-inducing effects of the compounds on human T cell acute lymphoblastic leukemia cell line, Jurkat T cells, were evaluated in the following manner.
Jurkat T cells cultured in RPMI medium containing 10% fetal bovine serum (FBS) were collected and stained with trypan blue (Sigma). […] Then, the cells were centrifuged at 1200 rpm at room temperature for 5 minutes and re-suspended in 10% FBS-containing RPMI medium at a concentration of 1.5×10^5 cells/mL. 200 μL of the cell suspension was dispensed into each well of a flat bottom 96-well plate (Costar). Then, the cells were treated with 10 μL of the diluted compounds in RPMI medium at final concentrations of […] or 5 μM, and incubated in a 5% CO2 incubator at 37° C. for 72 hours. In a vehicle control group, the cells were treated with 10 μL of RPMI medium containing 1% of dimetylsulfoxide (DMSO, Sigma). The incubated cells were harvested, put into 5-mL FACS tubes (BD Falcon), washed with 1 mL of phosphate buffered saline (PBS), and then re-suspended in 0.1 mL of binding buffer (10 mM Hepes-NaOH, pH 7.4, 140 mM NaCl, […] CaCl2). The suspended cells were stained with fluorescein isothiocyanate (FITC)-Annexin V (BD Biosciences) and 7-amino-actinomycin D (7-AAD, e-Biosciences) at room temperature for 15 minutes. The stained cells were suspended in 0.3 mL of binding buffer and analyzed by a flow cytometer. Apoptosis was determined by the ratio (%) of cells stained with FITC-Annexin V and 7-AAD among the total cells (see Tables 10 and 11).
With `Cc1ccccc1OCC(=O)N/N=C/c1cccc2[nH]ccc12` [Compound 013, (E)-N′-((1H-indol-4-yl)methylene)-2-(o-tosyloxy)acetohydrazide] the cytotoxicity at 5 µM was 100%.
For `Cc1ccccc1OCC(=O)N/N=C/c1ccc2[nH]ccc2c1` [Compound 014], the cytotoxicity at 5 µM was 100%.
`Cc1ccccc1OCC(=O)N/N=C/c1ccc2cc[nH]c2c1` [Compound 034] was tested, and the cytotoxicity at 5 µM was 90%.
`Cc1ccccc1OCC(=O)N/N=C/c1ccc2c(ccn2CN(C)C)c1` [Compound 072] showed a cytotoxicity at 5 µM of 95%.
`Cc1cc(Br)cc(C)c1OCC(=O)N/N=C/c1ccc2[nH]ccc2c1` [Compound 092, (E)-N′-((1H-indol-5-yl)methylene)-2-(4-bromo-2,6-dimethylphenoxy)acetohydrazide] was tested, and the cytotoxicity at 5 µM was 100%.
With `Cc1ccccc1OCC(=O)N/N=C/c1ccc2[nH]cnc2c1` [Compound 100] the cytotoxicity at 5 µM was 90%.
For `Cc1cc(C)c(OCC(=O)N/N=C/c2cc3ccccc3[nH]2)c(C)c1` [Compound 109, (E)-N′-((1H-indol-2-yl)methylene)-2-(mesityloxy)acetohydrazide], the cytotoxicity at 5 µM was 100%.
`Cc1cc(Br)cc(C)c1OCC(=O)N/N=C/c1cccc2[nH]ccc12` [Compound 112, (E)-N′-((1H-indol-4-yl)methylene)-2-(4-bromo-2,6-dimethylphenoxy)acetohydrazide] gave a cytotoxicity at 5 µM of 100%.
In the case of `Cc1cccc(C)c1OCC(=O)N/N=C/c1cccc2[nH]ccc12` [Compound 118, (E)-N′-((1H-indol-4-yl)methylene)-2-(2,6-dimethylphenoxy)acetohydrazide], the cytotoxicity at 5 µM is reported as 100%.
For `CC(C)c1cccc(C(C)C)c1OCC(=O)N/N=C/c1cccc2[nH]ccc12` [Compound 121, (E)-N′-((1H-indol-4-yl)methylene)-2-(2,6-diisopropylphenoxy)acetohydrazide], the cytotoxicity at 5 µM was 100%.
`Cc1cc(C(C)(C)C)c(OCC(=O)N/N=C/c2cccc3[nH]ccc23)c(C(C)(C)C)c1` [Compound 127, (E)-N′-((1H-indol-4-yl)methylene)-2-(2,6-di-tert-butyl-4-methylphenoxy)acetohydrazide] gave a cytotoxicity at 5 µM of 100%.
`Cc1cc(Br)cc(C)c1OCC(=O)N/N=C/c1ccc2cc[nH]c2c1` [Compound 133, (E)-N′-((1H-indol-6-yl)methylene)-2-(4-bromo-2,6-dimethylphenoxy)acetohydrazide] showed a cytotoxicity at 5 µM of 100%.
`Cc1cc(C)c(NCC(=O)N/N=C/c2cccc3[nH]ccc23)c(C)c1` [Compound 135, (E)-N′-((1H-indol-4-yl)methylene)-2-(mesitylamino)acetohydrazide] showed a cytotoxicity at 5 µM of 100%.
For `Cc1cc(C)c(NCC(=O)N/N=C/c2c[nH]c3ccccc23)c(C)c1` [Compound 136], the cytotoxicity at 5 µM was 100%.
`Cc1cc(-c2cccnc2)cc(C)c1OCC(=O)N/N=C/c1cccc2[nH]ccc12` [Compound 137, (E)-N′-((1H-indol-4-yl)methylene)-2-(2,6-dimethyl-4-(pyridin-3-yl)phenoxy)acetohydrazide] was tested, and the cytotoxicity at 5 µM was 100%.
Work on `Cc1cc(-c2cccnc2)cc(C)c1OCC(=O)N/N=C/c1c[nH]c2ccccc12` [Compound 138] yielded a cytotoxicity at 5 µM of 90%.
Molecule `Cc1cc(-c2cccnc2)cc(C)c1OCC(=O)N/N=C/c1ccc2cc[nH]c2c1` [Compound 139, (E)-N′-((1H-indol-6-yl)methylene)-2-(2,6-dimethyl-4-(pyridin-3-yl)phenoxy)acetohydrazide] has a cytotoxicity at 5 µM of 100%.
`O=C(COc1ccccc1-c1cccnc1)N/N=C/c1cccc2[nH]ccc12` [Compound 146, (E)-N′-((1H-indol-4-yl)methylene)-2-(2-(pyridin-3-yl)phenoxy)acetohydrazide] gave a cytotoxicity at 5 µM of 100%.
For `Cc1cc(C)c(SCC(=O)N/N=C/c2cccc3[nH]ccc23)c(C)c1` [Compound 147, (E)-N′-((1H-indol-4-yl)methylene)-2-(mesitylthio)acetohydrazide], the cytotoxicity at 5 µM was 100%.
Work on `Cc1cc(-c2cncnc2)cc(C)c1OCC(=O)N/N=C/c1cccc2[nH]ccc12` [Compound 149, (E)-N′-((1H-indol-4-yl)methylene)-2-(2,6-dimethyl-4-(pyrimidin-5-yl)phenoxy)acetohydrazide] yielded a cytotoxicity at 5 µM of 100%.
